Measurements from BindingDB's records for PubMed 36346645 (University of Copenhagen, 2022).

Molecular target: Calcium/calmodulin-dependent protein kinase type II subunit alpha (Rattus norvegicus, UniProt P11275)
Test: Displacement of [3H]NCS-382 from CaMK2alpha in rat brain cortical membrane homogenates measured after 1 hr by TopCount scintillation counting method

Sequence of Calcium/calmodulin-dependent protein kinase type II subunit alpha (P11275 whole entry): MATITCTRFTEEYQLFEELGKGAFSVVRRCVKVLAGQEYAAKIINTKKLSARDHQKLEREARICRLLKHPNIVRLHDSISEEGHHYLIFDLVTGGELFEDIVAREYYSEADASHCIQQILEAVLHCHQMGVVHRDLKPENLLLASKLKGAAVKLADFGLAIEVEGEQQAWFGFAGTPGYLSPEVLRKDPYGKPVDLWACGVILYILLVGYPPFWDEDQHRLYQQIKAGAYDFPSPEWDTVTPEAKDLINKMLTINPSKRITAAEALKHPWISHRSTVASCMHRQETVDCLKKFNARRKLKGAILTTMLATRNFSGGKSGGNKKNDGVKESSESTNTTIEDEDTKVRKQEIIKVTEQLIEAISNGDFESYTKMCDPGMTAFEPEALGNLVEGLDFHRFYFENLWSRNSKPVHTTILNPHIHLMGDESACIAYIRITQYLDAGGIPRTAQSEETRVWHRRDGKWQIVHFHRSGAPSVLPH

`O=C(O)/C=C1\CCCc2cc(I)ccc2C1O` (stereo unspecified) gave a Ki of 50 nM.
